Measured values reported in patent US5149719A, “Composition for transdermal penetration of medicaments” (priority 1990, dated 1992).
Counter-ions that a name gives are not always drawn.

Experiments:
in vitro = details: guinea pig, Permeability Coefficient (cm/hr) ± SEM, saturated dodecanol, Example 13
[1] = for amount of higher alcohol necessary to reach a small permanent visible excess: H^3-mannitol in 30% v/v aqueous ethanol
Protocol: Trace amounts of H^3 -mannitol were added to 10 ml aliquots of a 33% (v/v) ethanol/water solution. The saturating amount of octanol for this solution was determined to be 45 μl per aliquot. Varying amounts of octanol were added to each aliquot as shown below. The aliquots were warmed and kept at 32° C. until use.

SMILES | amount of higher alcohol necessary to reach a small permanent visible excess [1] | other results
COc1ccc([C@@H]2Sc3ccccc3N(CCN(C)C)C(=O)[C@@H]2OC(C)=O)cc1 [Diltiazem Hydrochloride] | – | Papp at 8 h (in vitro; 20% v/v ethanol): 0.0336 ×10⁻⁶ cm/s; Papp at 8 h (in vitro; 30% v/v ethanol): 0.0925 ×10⁻⁶ cm/s; Papp at 8 h (in vitro; 40% v/v ethanol): 0.319 ×10⁻⁶ cm/s; Papp at 8 h (in vitro; 50% v/v ethanol): 0.294 ×10⁻⁶ cm/s; Papp at 8 h (in vitro; no ethanol): 0.00764 ×10⁻⁶ cm/s
CCCCCCCCCCO [decanol] | ~10 μl/ml | –
CCCCCCCCCCCCO [dodecanol] | ~10 μl/ml | –
CCCCCCCCCCCCCCCCO [hexadecanol] | ~0.1 mg/mL | –
CCCCCCCCCCCCCCCCCCO [octadecanol] | ~0.1 mg/mL | –

Further lines, with some results ahead:

amount of higher alcohol necessary to reach a small permanent visible excess [1] | SMILES | other results
~20 μl/ml | CCCCCCCCO [octanol] | saturating amount of octanol ([1]; 10 ml aliquots of 33% (v/v) ethanol/water with trace H^3-mannitol): 45 μl per aliquot
100 μl/ml | CCCCCO [pentanol] | –
~4 mg/mL | CCCCCCCCCCCCCCO [tetradecanol] | –
~4 mg/mL | CCCCCCCCCCCCCO [tridecanol] | –
